Tests used:
Recombinant Tdp1 [1] = molecular target: T1, Recombinant Tdp1 (Homo sapiens (Human), UniProt Q9NUW8); assay: AlphaScreen Tdp1 assay (qHTS, FITC/biotin phosphotyrosine DNA substrate); assay type: biochemical
Description: Tween-20, KCl, fluorescein isothiocyanate (FITC), and PBS were procured from Sigma-Aldrich. DMSO certified ACS grade was obtained from Fisher. The AlphaScreen FITC/streptavidin detection kit was from PerkinElmer Life and Analytical Sciences (Waltham, Mass.). Assay buffer consisted of PBS, pH 7.4, 80 mM KCl and 0.05% Tween-20. Recombinant Tdp1 was expressed and purified as described elsewhere (Antony et al., Nucleic Acids Research 35:4474-4484 (2007). The Sigma-Aldrich LOPAC^1280 library of 1280 known bioactives was received as DMSO solutions at initial concentration of 10 mM and plated as described elsewhere (Inglese et al., Proc. Natl. Acad. Sci. USA 103:11473-11478 (2006); Yasgar et al., J. Assoc. Lab. Automat. 13:78-89 (2008)).
The biotinylated phosphotyrosine deoxyoligonucleotide (5′ biotin-[…]-pY) was synthesized, purified, and QC-tested by Midland Certified Reagent Company, Midland, Tex. Standard overnight 4° C. FITC coupling was performed in-house. The FITC-labeled substrate was purified on Biospin-6 desalting columns (Bio-Rad, Hercules, Calif.) and its concentration was determined by UV-vis spectrophotometry.
Assay reaction mixtures and substrate/beads titrations were initially performed at 20 μl final volume in 384-well plates. For the subsequent 1,536-well based experiments, Flying Reagent Dispenser (FRD, Aurora Discovery, presently Beckman-Coulter) was used to dispense reagents into the assay plates, while a pintool was used to deliver DMSO solutions of the test inhibitors. Plates were read on Envision plate reader (PerkinElmer) equipped with AlphaScreen optical detection module. For testing the effect of enzyme reaction conditions on the IC50 values for select inhibitors, the respective compounds were prepared as 24-point twofold intra-plate dilution series and assayed as described.
Three μl of reagents (buffer in columns 3 and 4 as negative control and 1.33 nM Tdp1 in columns 1, 2, 5-48) were dispensed into 1,536-well black solid bottom plate. Compounds (final concentrations in the range of 0.7 nM to 57 μM) were transferred via Kalypsys pintool equipped with 1,536-pin array. The plate was incubated for 15 min at room temperature, and then 1 μl of substrate (15 nM final concentration) was added to start the reaction. After 5 min incubation at room temperature, 1 μl of bead mix (15 μg/mL final concentration) was added and the plate was further incubated for 10 min at room temperature prior to signal measurement. Substrate and beads were prepared and kept in amber bottles to prevent photo-degradation. Library plates were screened starting from the lowest and proceeding to the highest concentration. Vehicle-only plates, with DMSO being pin-transferred to the entire column 5-48 compound area, were included at the beginning and the end of the screen in order to record any systematic shifts in assay signal. Screening data were corrected, normalized, and curve-fitted by using in-house developed algorithms.
To configure an assay for Tdp1, we utilized the ability of the AlphaScreen system to report on the integrity of the phosphotyrosine-based substrate, viewed here as a multi-site analyte. The AlphaScreen signal is a direct consequence of the close proximity of donor and acceptor beads, which is achieved by the formation of a ternary donor-analyte-acceptor recognition complex. To realize the AlphaScreen assay using the consensus DNA-pY substrate for Tdp1, 5′[…]pY, recognition elements for both bead types had to be introduced. To this end, we coupled a fluorescein isothiocyanate (FITC) to the amino group of tyrosine in a phosphotyrosine-containing single stranded DNA substrate bearing a biotin at its 5′ end. […] Conversely, if the Tdp1 catalysis was inhibited, an elevated signal would be observed for that sample.

Recombinant Tdp1 [2] = molecular target: T1, Recombinant Tdp1; assay: Secondary radiolabel gel-based Tdp1 assay (N14Y substrate); assay type: biochemical
Description: One nanomolar of 5′-^32P-labeled substrate (N14Y; 5′-[…]-Tyrosine-3′) was incubated with 0.1 nM recombinant Tdp1 in the absence or presence of inhibitor for 20 min at 25° C. in a reaction buffer containing 50 mM Tris-HCl (pH 7.5), 80 mM KCl, 2 mM EDTA, and 40 μg/ml BSA. Reactions were terminated by the addition of one volume of gel loading buffer (96% (v/v) formamide, 10 mM EDTA, 1% (w/v) xylene cyanol and 1% (w/v) bromphenol blue). The samples were subsequently heated to 95° C. for 5 min and subjected to 20% denaturing PAGE. When the Tdp1 mutant H493R (100 nM) was employed, the reactions were stopped with one volume of SDS loading dye and analyzed by 4-20% SDS-PAGE. All gels were dried and exposed on a PhosphorImager screen. Imaging and quantification were done using a Typhoon 8600 and ImageQuant software (GE Healthcare, Piscataway, N.J.).
Activity of certain compounds was also tested in secondary radiolabel gel-based assays (Inamdar et al., J. Biol. Chem. 277:27162-27168 (2002); Davies et al., J. Mol. Biol. 324:917-932 (2002)).

[3] = 1,536-well AlphaScreen qHTS, N/D = not detectable, read-out: Activity (qHTS) IC50
[4] = 1 nM N14Y, 0.1 nM Tdp1, 20 min at 25° C., N/D = not detectable, read-out: Activity (Gel)

T1 sequence (Q9NUW8 whole entry): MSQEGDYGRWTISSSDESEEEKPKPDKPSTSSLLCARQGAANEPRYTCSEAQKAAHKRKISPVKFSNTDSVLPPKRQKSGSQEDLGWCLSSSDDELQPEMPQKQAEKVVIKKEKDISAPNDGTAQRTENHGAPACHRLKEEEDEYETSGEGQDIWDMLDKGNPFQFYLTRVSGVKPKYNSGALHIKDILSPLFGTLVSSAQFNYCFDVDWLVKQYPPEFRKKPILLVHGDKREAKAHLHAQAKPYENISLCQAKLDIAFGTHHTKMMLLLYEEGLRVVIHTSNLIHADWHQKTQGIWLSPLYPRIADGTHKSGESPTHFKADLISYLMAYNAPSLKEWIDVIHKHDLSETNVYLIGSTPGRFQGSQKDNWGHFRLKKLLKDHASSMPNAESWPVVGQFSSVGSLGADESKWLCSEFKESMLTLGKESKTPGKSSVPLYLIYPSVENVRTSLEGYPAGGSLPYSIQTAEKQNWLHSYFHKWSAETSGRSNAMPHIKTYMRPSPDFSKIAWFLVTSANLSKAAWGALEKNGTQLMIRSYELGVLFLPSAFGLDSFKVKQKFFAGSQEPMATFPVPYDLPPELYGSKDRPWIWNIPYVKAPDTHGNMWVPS

Row | Structure (SMILES) | IC50 (Recombinant Tdp1 [1]; [3]) [µM] | IC50 (Recombinant Tdp1 [2]; [4]) [µM] | further results
1 | CN(C)[C@H]1C(O)=C(C(=O)NCN2CCCC2)C(=O)[C@]2(O)C(O)=C3C(=O)c4c(O)cccc4[C@](C)(O)[C@H]3C[C@H]12 | 0.2 | – | IC50 (Recombinant Tdp1 [2]; 1 nM N14Y, 0.1 nM Tdp1, value printed with question mark, read-out: Activity (Gel)): < 0.1 µM
2 | CN(C)C1C(=O)C(C(N)=O)C(=O)C2(O)C(=O)C3C(=O)c4c(O)cccc4C(C)(O)C3C(O)C12 (centres unmarked) | – | – | IC50 (Recombinant Tdp1 [1]): 0.2 µM; IC50 (Recombinant Tdp1 [2]): 5 µM
3 | [O]=[V]([O-])([O-])[O-] [vanadate, reference compound] | – | – | Tdp1 inhibition potency range (Recombinant Tdp1 [1]; AlphaScreen assay set-up in 384-well plates): sub-millimolar
4 | CN(C)[C@@H]1C(=O)C(C(N)=O)=C(O)[C@@]2(O)C(O)=C3C(=O)c4c(O)cccc4[C@@](C)(O)[C@H]3[C@H](O)[C@@H]12 | – | – | IC50 (Recombinant Tdp1 [1]): 0.4 µM
5 | CN(C)[C@H]1C(O)=C(C(N)=O)C(=O)[C@]2(O)C(O)=C3C(=O)c4c(O)cccc4[C@@](C)(O)[C@H]3C[C@@H]12 | 14.1 | 10 | –
6 | CN(C)C1C(O)=C(C(N)=O)C(=O)[C@]2(O)C(O)=C3C(=O)c4c(O)cccc4[C@](C)(O)C3C(O)C12 (some centres unmarked) | 3.16 | 10 | –
7 | CN(C)[C@H]1C(O)=C(C(=O)NCN2CCCC2)C(=O)[C@]2(O)C(O)=C3C(=O)c4c(O)cccc4[C@@](C)(O)[C@H]3C[C@@H]12 | 1.26 | 30.2 | –
8 | CN(C)[C@@H]1C(O)=C(C(=O)NCN2CCCC2)C(=O)[C@@]2(O)C(O)=C3C(=O)c4c(O)cccc4[C@@](C)(O)C3CC12 (some centres unmarked) | 0.71 | – | –
9 | CN(C)C1C(O)=C(C(N)=O)C(=O)[C@@]2(O)C(O)=C3C(=O)c4c(O)cccc4[C@@](C)(O)C3C[C@@H]12 (some centres unmarked) | 10 | – | –
10 | CN(C)C1C(O)=C(C(N)=O)C(=O)[C@@]2(O)C(O)=C3C(=O)c4c(O)cccc4[C@@](C)(O)C3CC12.Cl (some centres unmarked) | – | – | Activity (qHTS) IC50 (Recombinant Tdp1 [1]; 1,536-well AlphaScreen qHTS, N/D = not detectable): IC50: N/D
11 | CN(C)[C@H]1C(O)=C(C(=O)NCN[C@@H](CCCCN)C(=O)O)C(=O)[C@]2(O)C(O)=C3C(=O)c4c(O)cccc4[C@@](C)(O)[C@H]3C[C@@H]12 | 12.6 | – | –

Continued, in another order:

Row | IC50 (Recombinant Tdp1 [1]; [3]) [µM] | IC50 (Recombinant Tdp1 [2]; [4]) [µM] | Structure (SMILES) | further results
12 | 3.16 | 20 | CN(C)C1C(O)=C(C(N)=O)C(=O)[C@@]2(O)C(O)=C3C(=O)c4c(O)ccc(Cl)c4[C@](C)(O)C3CC12 (some centres unmarked) | –
13 | 2.82 | 13.2 | CN(C)[C@@H]1C(O)=C(C(N)=O)C(=O)[C@]2(O)C(O)=C3C(=O)c4c(O)ccc(Cl)c4[C@](C)(O)[C@H]3C[C@@H]12 | –
14 | 4.47 | 3 | CN(C)C1C(O)=C(C(N)=O)C(=O)[C@@]2(O)C(O)=C3C(=O)c4c(O)cccc4[C@@](C)(O)C3[C@H](O)C12 (some centres unmarked) | –
15 | 0.63 | 8 | CN(C)C1C(O)=C(C(N)=O)C(=O)[C@@]2(O)C(O)=C3C(=O)c4c(O)cccc4[C@](C)(O)C3C(O)C12 (some centres unmarked) | –
16 | 1.59 | – | CN(C)[C@@H]1C(O)=C(C(N)=O)C(=O)[C@]2(O)C(O)=C3C(=O)c4c(O)cccc4[C@@](C)(O)[C@H]3[C@H](O)[C@@H]12 | –
17 | 0.5 | – | CN(C)[C@@H]1C(O)=C(C(N)=O)C(=O)[C@@]2(O)C(O)=C3C(=O)c4c(O)cccc4[C@@](C)(O)[C@H]3[C@H](O)[C@@H]12 | –

— US8865686B2, “Tetracycline compounds as tyrosyl-DNA phosphodiesterase I inhibitors” (The United States of America, as Represented by the …, priority 2006, dated 2014)
